Laboratory results published in patent US9340590B2 (priority 2011, dated 2016).
pIC50: −log10 of the molar value. Positions of bridges follow the written chain, without caps; N, C: chain ends. Non-standard residues stand in square brackets, D forms with d. Residues, ends and D or L forms follow the SMILES beside them. 2Pal = N[C@@H](Cc1ccccn1)C(=O)O

Key:
hNav1.5 = hNav1.5 (Homo sapiens, UniProt Q14524); test: cell-based
hNav1.7 = hNav1.7 (Homo sapiens, UniProt Q15858); test: cell-based; conditions: Nav1.7 Use IC50
Sequence of hNav1.7 (Q15858 whole entry, looked up): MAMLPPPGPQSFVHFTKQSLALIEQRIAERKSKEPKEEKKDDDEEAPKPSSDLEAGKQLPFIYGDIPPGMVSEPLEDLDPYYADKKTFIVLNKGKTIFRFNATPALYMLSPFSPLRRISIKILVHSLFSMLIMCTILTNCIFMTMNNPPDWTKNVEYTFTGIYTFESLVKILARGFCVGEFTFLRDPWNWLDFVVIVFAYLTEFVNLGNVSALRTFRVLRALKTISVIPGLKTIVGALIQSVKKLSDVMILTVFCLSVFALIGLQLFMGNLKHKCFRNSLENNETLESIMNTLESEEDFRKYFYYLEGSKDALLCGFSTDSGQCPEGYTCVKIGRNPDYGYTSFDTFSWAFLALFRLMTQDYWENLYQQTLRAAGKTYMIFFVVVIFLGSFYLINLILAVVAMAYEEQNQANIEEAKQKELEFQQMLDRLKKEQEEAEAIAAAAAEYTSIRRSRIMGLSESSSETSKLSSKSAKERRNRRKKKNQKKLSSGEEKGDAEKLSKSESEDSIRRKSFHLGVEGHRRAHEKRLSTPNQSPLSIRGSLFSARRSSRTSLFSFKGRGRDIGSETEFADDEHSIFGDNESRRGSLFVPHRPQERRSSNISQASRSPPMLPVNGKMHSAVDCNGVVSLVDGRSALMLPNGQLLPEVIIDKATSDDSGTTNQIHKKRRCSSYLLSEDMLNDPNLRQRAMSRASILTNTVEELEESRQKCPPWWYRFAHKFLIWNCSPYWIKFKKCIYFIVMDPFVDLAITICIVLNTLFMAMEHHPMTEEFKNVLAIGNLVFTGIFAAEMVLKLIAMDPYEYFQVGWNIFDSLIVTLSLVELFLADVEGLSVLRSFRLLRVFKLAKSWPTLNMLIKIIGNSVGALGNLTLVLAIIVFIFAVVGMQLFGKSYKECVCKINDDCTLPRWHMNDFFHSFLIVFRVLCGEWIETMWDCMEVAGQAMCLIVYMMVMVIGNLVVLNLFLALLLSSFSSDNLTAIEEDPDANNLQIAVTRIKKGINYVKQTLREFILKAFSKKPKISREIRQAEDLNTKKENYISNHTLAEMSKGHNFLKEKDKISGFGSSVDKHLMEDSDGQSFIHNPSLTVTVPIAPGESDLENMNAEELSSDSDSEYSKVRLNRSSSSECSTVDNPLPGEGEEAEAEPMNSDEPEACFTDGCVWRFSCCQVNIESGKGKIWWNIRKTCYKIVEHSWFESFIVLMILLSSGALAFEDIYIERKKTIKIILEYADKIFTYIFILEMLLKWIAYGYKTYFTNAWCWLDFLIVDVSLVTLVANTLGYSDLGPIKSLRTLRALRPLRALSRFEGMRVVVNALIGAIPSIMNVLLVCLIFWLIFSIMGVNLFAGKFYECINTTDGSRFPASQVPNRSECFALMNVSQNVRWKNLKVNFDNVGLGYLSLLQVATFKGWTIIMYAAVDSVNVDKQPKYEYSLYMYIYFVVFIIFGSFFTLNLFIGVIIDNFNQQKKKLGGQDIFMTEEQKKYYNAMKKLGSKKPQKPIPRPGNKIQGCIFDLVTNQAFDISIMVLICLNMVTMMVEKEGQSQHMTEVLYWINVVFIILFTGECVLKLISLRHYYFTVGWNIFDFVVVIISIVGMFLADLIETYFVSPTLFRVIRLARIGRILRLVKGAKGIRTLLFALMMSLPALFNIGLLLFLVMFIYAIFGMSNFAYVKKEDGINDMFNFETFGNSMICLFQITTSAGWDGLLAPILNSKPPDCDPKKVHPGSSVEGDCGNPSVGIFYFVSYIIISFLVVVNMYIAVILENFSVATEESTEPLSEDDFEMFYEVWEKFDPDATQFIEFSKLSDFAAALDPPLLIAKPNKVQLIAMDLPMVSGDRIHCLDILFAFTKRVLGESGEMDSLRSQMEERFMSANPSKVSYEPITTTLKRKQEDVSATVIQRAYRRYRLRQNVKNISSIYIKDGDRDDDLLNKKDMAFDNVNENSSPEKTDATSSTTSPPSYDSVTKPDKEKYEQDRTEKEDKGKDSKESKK

Sequence of hNav1.5 (Q14524 whole entry, looked up): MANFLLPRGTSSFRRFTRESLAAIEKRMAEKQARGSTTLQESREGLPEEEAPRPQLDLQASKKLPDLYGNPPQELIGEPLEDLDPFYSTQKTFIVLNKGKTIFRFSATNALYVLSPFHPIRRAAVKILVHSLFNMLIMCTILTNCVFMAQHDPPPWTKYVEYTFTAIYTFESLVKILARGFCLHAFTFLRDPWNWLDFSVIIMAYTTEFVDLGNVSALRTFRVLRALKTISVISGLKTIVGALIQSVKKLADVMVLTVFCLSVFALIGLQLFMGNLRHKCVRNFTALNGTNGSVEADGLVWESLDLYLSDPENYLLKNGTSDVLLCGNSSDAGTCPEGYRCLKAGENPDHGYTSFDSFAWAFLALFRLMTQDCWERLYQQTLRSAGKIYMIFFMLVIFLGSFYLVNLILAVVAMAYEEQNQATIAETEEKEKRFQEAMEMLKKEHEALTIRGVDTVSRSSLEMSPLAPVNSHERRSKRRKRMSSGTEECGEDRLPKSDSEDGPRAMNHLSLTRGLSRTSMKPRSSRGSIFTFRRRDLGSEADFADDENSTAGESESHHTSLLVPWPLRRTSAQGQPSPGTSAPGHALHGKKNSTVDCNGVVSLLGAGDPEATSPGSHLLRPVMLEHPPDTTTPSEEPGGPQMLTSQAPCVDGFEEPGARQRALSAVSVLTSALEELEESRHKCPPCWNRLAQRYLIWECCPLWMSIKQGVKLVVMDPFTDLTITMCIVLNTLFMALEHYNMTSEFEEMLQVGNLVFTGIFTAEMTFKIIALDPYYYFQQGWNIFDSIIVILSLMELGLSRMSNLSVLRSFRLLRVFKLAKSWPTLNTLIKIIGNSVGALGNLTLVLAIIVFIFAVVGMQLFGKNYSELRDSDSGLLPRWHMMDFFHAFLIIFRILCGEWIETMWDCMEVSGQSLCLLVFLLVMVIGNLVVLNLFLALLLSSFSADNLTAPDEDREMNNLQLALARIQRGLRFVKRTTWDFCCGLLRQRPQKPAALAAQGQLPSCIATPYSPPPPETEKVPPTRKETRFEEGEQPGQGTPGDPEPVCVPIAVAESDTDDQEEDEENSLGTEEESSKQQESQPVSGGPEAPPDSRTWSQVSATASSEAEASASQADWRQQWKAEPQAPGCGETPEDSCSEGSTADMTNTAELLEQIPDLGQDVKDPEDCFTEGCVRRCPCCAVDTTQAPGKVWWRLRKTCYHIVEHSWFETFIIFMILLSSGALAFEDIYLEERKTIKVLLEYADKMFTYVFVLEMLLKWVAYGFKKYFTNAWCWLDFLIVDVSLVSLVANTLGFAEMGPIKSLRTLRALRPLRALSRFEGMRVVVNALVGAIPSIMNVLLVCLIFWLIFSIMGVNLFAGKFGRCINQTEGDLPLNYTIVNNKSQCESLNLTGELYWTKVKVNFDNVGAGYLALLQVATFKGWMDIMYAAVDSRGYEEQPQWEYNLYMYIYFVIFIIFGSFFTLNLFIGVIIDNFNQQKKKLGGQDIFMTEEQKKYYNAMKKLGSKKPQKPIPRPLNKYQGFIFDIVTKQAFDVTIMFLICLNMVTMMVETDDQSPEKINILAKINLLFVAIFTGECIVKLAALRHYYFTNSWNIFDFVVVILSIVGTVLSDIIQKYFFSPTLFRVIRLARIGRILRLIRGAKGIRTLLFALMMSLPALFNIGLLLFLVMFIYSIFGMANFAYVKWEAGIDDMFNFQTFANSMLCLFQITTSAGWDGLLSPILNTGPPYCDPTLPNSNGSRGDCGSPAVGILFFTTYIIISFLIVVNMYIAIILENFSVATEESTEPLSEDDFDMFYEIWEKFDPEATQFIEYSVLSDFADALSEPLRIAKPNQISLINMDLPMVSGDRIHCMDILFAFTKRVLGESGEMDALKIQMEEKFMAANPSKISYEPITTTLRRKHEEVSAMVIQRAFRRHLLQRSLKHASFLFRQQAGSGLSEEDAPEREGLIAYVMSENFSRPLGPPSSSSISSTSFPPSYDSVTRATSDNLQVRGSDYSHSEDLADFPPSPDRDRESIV

Row | SMILES | pIC50 (hNav1.5) | pIC50 (hNav1.7)
1 | CC[C@H](C)[C@@H]1NC(=O)[C@@H]2CSSC[C@@H]3NC(=O)[C@H](C(C)C)NC(=O)[C@H](CC(C)C)NC(=O)[C@H](CC(N)=O)NC(=O)[C@@H]4CCCN4C(=O)[C@H](CCCNC(=N)N)NC(=O)[C@H](CSSC[C@H](NC(=O)[C@@H](N)CC(=O)O)C(=O)N[C@@H](CC(C)C)C(=O)NCC(=O)N[C@@H](C)C(=O)N[C@@H](Cc4ccccc4)C(=O)N[C@@H](CCCNC(=N)N)C(=O)N[C@@H](CCCCN)C(=O)N2)NC(=O)[C@H](CSSC[C@@H](C(=O)N[C@@H](CCCCN)C(=O)N[C@@H](Cc2ccc(O)cc2)C(=O)N[C@H](C(=O)N[C@@H](Cc2ccccc2)C(N)=O)C(C)C)NC(=O)[C@H](Cc2c[nH]c4ccccc24)NC(=O)[C@H](CCCCN)NC(=O)[C@H](Cc2c[nH]cn2)NC(=O)[C@H]([C@@H](C)O)NC(=O)[C@H](C)NC(=O)[C@H](CO)NC3=O)NC(=O)[C@H](CCCCN)NC(=O)[C@H](CC(=O)O)NC(=O)[C@H](CC(N)=O)NC(=O)[C@H](CC(=O)O)NC(=O)[C@@H]2CCCN2C1=O [[Ala5,25;Phe6]GpTx-1(1-34)] (H-DCLGAFRKCIPDNDKCCRPNLVCSATHKWCKYVF-NH2; disulfide 2-17, 9-23, 16-30) | < 5.00 | 7.07
2 | CC[C@H](C)[C@@H]1NC(=O)[C@@H]2CSSC[C@@H]3NC(=O)[C@H](C(C)C)NC(=O)[C@H](CC(C)C)NC(=O)[C@H](CC(N)=O)NC(=O)[C@@H]4CCCN4C(=O)[C@H](CCCNC(=N)N)NC(=O)[C@H](CSSC[C@H](NC(=O)[C@@H](N)CC(=O)O)C(=O)N[C@@H](CC(C)C)C(=O)NCC(=O)N[C@@H](Cc4ccccc4)C(=O)N[C@@H](CCSC)C(=O)N[C@@H](CCCNC(=N)N)C(=O)N[C@@H](CCCCN)C(=O)N2)NC(=O)[C@H](CSSC[C@@H](C(=O)N[C@@H](CCCCN)C(=O)N[C@@H](Cc2ccc(O)cc2)C(=O)N[C@H](C(=O)N[C@@H](Cc2ccccc2)C(=O)N[C@@H](Cc2ccccn2)C(N)=O)C(C)C)NC(=O)[C@H](Cc2c[nH]c4ccccc24)NC(=O)[C@H](CCCCN)NC(=O)[C@H](Cc2c[nH]cn2)NC(=O)[C@H]([C@@H](C)O)NC(=O)[C@H](CCCNC(=N)N)NC(=O)[C@H](CO)NC3=O)NC(=O)[C@H](CCCCN)NC(=O)[C@H](CC(=O)O)NC(=O)[C@H](CC(N)=O)NC(=O)[C@H](CC(=O)O)NC(=O)[C@@H]2CCCN2C1=O [GpTx-1(1-34)-2PAL] | < 5.00 | 7.57
3 | CC[C@H](C)[C@@H]1NC(=O)[C@@H]2CSSC[C@@H]3NC(=O)[C@H](C(C)C)NC(=O)[C@H](CC(C)C)NC(=O)[C@H](CC(N)=O)NC(=O)[C@@H]4CCCN4C(=O)[C@H](CCCNC(=N)N)NC(=O)[C@H](CSSC[C@H](NC(=O)[C@@H](N)CC(=O)O)C(=O)N[C@@H](CC(C)C)C(=O)NCC(=O)N[C@@H](Cc4ccccc4)C(=O)N[C@@H](CCSC)C(=O)N[C@@H](CCCNC(=N)N)C(=O)N[C@@H](CCCCN)C(=O)N2)NC(=O)[C@H](CSSC[C@@H](C(=O)N[C@@H](CCCCN)C(=O)N[C@@H](Cc2ccc(O)cc2)C(=O)N[C@@H](Cc2ccccn2)C(=O)N[C@@H](Cc2ccccc2)C(N)=O)NC(=O)[C@H](Cc2c[nH]c4ccccc24)NC(=O)[C@H](CCCCN)NC(=O)[C@H](Cc2c[nH]cn2)NC(=O)[C@H]([C@@H](C)O)NC(=O)[C@H](CCCNC(=N)N)NC(=O)[C@H](CO)NC3=O)NC(=O)[C@H](CCCCN)NC(=O)[C@H](CC(=O)O)NC(=O)[C@H](CC(N)=O)NC(=O)[C@H](CC(=O)O)NC(=O)[C@@H]2CCCN2C1=O [[2PAL33]GpTx-1(1-34)] (H-DCLGFMRKCIPDNDKCCRPNLVCSRTHKWCKY[2Pal]F-NH2; disulfide 2-17, 9-23, 16-30) | 5.46 | 8.00
